Results as given in patent US20260137819A1 (Radionetics Oncology, Inc., priority 2022, published 2026).
Starred links: 1 amine or outer side, 2 acyl side, 3 side chain; linkers in the order of their positions; H or OH if unused. Non-standard residues stand in square brackets, D forms with d. Residues, ends and D or L forms follow the SMILES beside them. Groups on a side chain read outwards from the residue. *: point of attachment. X1 = COc1cc2c(cc1-c1cccc(N*)c1)-c1c(c(C(=O)N3CCOCC3(C)C)nn1-c1cc(Cl)cc(Cl)c1)CO2; DOTA = O=C(O)CN1CCN(CC(=O)O)CCN(CC(=O)*)CCN(CC(=O)O)CC1; Suc = O=C(CCC(=O)[*:2])[*:1]

The compounds below were run against T1, human follicle-stimulating hormone receptor (FSHR) (Homo sapiens, UniProt P23945) (assay: Measurement of agonist cAMP production by activation of human FSHR). Conditions: CHO-K1 human FSHR cells, 30 minutes at 37° C., HTRF cAMP kit; read-out: hFSHR Agonist cAMP EC50.
T1 construct: host or cells: CHO-K1
T1 sequence (P23945 18-695): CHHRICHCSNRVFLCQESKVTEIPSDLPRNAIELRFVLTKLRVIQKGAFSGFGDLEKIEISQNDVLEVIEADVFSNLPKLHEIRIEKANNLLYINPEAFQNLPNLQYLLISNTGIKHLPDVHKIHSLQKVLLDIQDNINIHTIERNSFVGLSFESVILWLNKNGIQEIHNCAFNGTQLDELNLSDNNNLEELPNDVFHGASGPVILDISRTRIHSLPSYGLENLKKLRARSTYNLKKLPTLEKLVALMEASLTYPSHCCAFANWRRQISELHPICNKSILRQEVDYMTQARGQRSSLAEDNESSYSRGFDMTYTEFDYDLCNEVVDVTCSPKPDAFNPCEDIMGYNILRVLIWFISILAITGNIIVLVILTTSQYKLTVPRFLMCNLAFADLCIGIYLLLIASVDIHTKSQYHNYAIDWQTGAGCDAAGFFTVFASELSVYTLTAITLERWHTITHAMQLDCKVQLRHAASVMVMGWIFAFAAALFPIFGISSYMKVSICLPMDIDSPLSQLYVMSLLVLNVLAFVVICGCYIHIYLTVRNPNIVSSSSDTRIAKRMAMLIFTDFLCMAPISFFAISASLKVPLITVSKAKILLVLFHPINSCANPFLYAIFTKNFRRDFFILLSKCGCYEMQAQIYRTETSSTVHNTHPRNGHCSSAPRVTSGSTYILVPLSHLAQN
Format: cell-based
Method in brief: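 cAMP output was measured by HTRF after 30 min at 37 °C agonist exposure (0–10,000 nM final) in stably FSHR-transfected CHO-K1 cells. Lysate cAMP was read off a standard curve and fitted to obtain half-maximal EC50.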

Compound	EC50 [nM]
COc1cc2c(cc1-c1cccc(NC(=O)CCC(=O)NCCCC[C@@H](NC(=O)[C@@H](CC(=O)O)NC(=O)[C@@H](CC(=O)O)NC(=O)CCNC(=O)CN3CCN(CC(=O)O)CCN(CC(=O)O)CCN(CC(=O)O)CC3)C(N)=O)c1)-c1c(c(C(=O)N3CCOCC3(C)C)nn1-c1cc(Cl)cc(Cl)c1)CO2 [Compound 51, 2,2′,2″-(10-((8R,11R,14R)-14-carbamoyl-8,11-bis(carboxymethyl)-23-((3-(1(3,5-dichlorophenyl)-3-(3,3-dimethylmorpholine-4-carbonyl)-7-methoxy-1,4-dihydrochromeno[4,3-c]pyrazol-8-yl)phenyl)amino)-2,6,9,12,20,23-hexaoxo-3,7,10,13,19-pentaazatricosyl)-1,4,7,10-tetraazacyclododecane-1,4,7-triyl)triacetic acid]	< 10
COc1cc2c(cc1-c1cccc(NC(=O)C[C@H](O)C[C@H](O)CCNC(=O)CN3CCN(CC(=O)O)CCN(CC(=O)O)CCN(CC(=O)O)CC3)c1)-c1c(c(C(=O)N3CCOCC3(C)C)nn1-c1cc(Cl)cc(Cl)c1)CO2 [Compound 38]	10 to 100
COc1cc2c(cc1-c1cncc(NC(=O)CCCNC(=O)CCOCCNC(=O)CN3CCN(CC(=O)O)CCN(CC(=O)O)CCN(CC(=O)O)CC3)c1)-c1c(c(C(=O)N3CCOCC3(C)C)nn1-c1cc(F)cc(F)c1)CO2 [Compound 57, 2,2′,2″-(10-(2-((2-(3-((4-((5-(1-(3,5-difluorophenyl)-3-(3,3-dimethylmorpholine-4-carbonyl)-7-methoxy-1,4-dihydrochromeno[4,3-c]pyrazol-8-yl)pyridin-3-yl)amino)-4-oxobutyl)amino)-3-oxopropoxy)ethyl)amino)-2-oxoethyl)-1,4,7,10-tetraazacyclododecane-1,4,7-triyl)triacetic acid--2,2,2-trifluoroacetic acid (1/1)]	10 to 100
COc1cc2c(cc1-c1cccc(NC(=O)CCOCCOCCOCCNC(=O)CN3CCN(CC(=O)O)CCN(CC(=O)O)CCN(CC(=O)O)CC3)c1)-c1c(c(C(=O)N3CCOCC3(C)C)nn1-c1cc(Cl)cc(Cl)c1)CO2 [Compound 18A]	< 10
COc1cc2c(cc1-c1cccc(NC(=O)CCC(=O)N(CC(=O)O)C3CCN(C(=O)CN4CCN(CC(=O)O)CCN(CC(=O)O)CCN(CC(=O)O)CC4)CC3)c1)-c1c(c(C(=O)N3CCOCC3(C)C)nn1-c1cc(Cl)cc(Cl)c1)CO2 [Compound 46, 2,2′,2″-(10-(2-(4-(N-(carboxymethyl)-4-((3-(1-(3,5-dichlorophenyl)-3-(3,3dimethylmorpholine-4-carbonyl)-7-methoxy-1,4-dihydrochromeno|4,3-clpyrazol-8-yl)phenyl)amino)-4-oxobutanamido)piperidin-1-yl)-2-oxoethyl)-1,4,7,10-tetraazacyclododecane-1,4,7-trivl)triacetic acid]	10 to 100
COc1cc2c(cc1-c1cccc(NC(=O)CN3CCC(NC(=O)[C@H](CS(=O)(=O)O)NC(=O)CN4CCN(CC(=O)O)CCN(CC(=O)O)CCN(CC(=O)O)CC4)CC3)c1)-c1c(c(C(=O)N3CCOCC3(C)C)nn1-c1cc(Cl)cc(Cl)c1)CO2 [Compound 66]	10 to 100
COc1cc2c(cc1-c1cccc(NC(=O)CCOCCOCCOCCOCCNC(=O)[C@@H](CCC(=O)O)NC(=O)CN3CCN(CC(=O)O)CCN(CC(=O)O)CCN(CC(=O)O)CC3)c1)-c1c(c(C(=O)N3CCOCC3(C)C)nn1-c1cc(Cl)cc(Cl)c1)CO2 [Compound 27, (R)-2,2′,2″-(10-(4-(2-carboxyethyl)-21-((3-(1-(3,5-dichlorophenyl)-3-(3,3-dimethylmorpholine-4-carbonyl)-7-methoxy-1,4-dihydrochromeno|4,3-clpyrazol-8-yl)phenyl)amino)-2,5,21-trioxo-9,12,15,18-tetraoxa-3,6-diazahenicosyl)-1,4,7,10-tetraazacyclododecane-1,4,7-triyl)triacetic acid]	< 10
COc1cc2c(cc1-c1cccc(OCCCNC(=O)[C@@H](CCCNC(=N)N)NC(=O)CCNC(=O)CN3CCN(CC(=O)O)CCN(CC(=O)O)CCN(CC(=O)O)CC3)c1)-c1c(c(C(=O)N3CCOCC3(C)C)nn1-c1cc(Cl)cc(Cl)c1)CO2 [Compound 73]	< 10
COc1cc2c(cc1-c1cccc(NC(=O)CCC(=O)NCCCC[C@@H](NC(=O)[C@@H](CCC(=O)O)NC(=O)[C@@H](CCCNC(=N)N)NC(=O)[C@@H](C)NC(=O)CN3CCN(CC(=O)O)CCN(CC(=O)O)CCN(CC(=O)O)CC3)C(=O)N[C@H](CCCNC(=N)N)C(=O)N[C@H](CCCNC(=N)N)C(=O)N[C@H](C)C(N)=O)c1)-c1c(c(C(=O)N3CCOCC3(C)C)nn1-c1cc(Cl)cc(Cl)c1)CO2 [Compound 89] ({DOTA}-[dA][dR][dE][dK]([Suc-X1])[dR][dR][dA]-NH2)	10 to 100
COc1cc2c(cc1-c1cccc(NC(=O)NCCOCCOCCOCCOCCNC(=O)CN3CCN(CC(=O)O)CCN(CC(=O)O)CCN(CC(=O)O)CC3)c1)-c1c(c(C(=O)N(C)C(C)(C)C)nn1-c1cc(Cl)cc(Cl)c1)CO2 [Compound 2, 2,2′,2″-(10-(1-((3-(3-(tert-butyl(methyl)carbamoyl)-1-(3,5-dichlorophenyl)-7-methoxy-1,4-dihydrochromeno|4,3-c|pyrazol-8-yl)phenyl)amino)-1,18-dioxo-5,8,11,14-tetraoxa-2,17-diazanonadecan-19-yl)-1,4,7,10-tetraazacyclododecane-1,4,7-triyl)triacetic acid]	< 10
COc1cc2c(cc1-c1cccc(NC(=O)NCCOCCOCCOCCOCCNC(=O)CN3CCN(CC(=O)O)CCN(CC(=O)O)CCN(CC(=O)O)CC3)c1)-c1c(c(C(=O)N3CCOCC3(C)C)nn1-c1cc(Cl)cc(Cl)c1)CO2 [Compound 8, 2,2′,2″-(10-(1-((3-(1-(3,5-dichlorophenyl)-3-(3,3-dimethylmorpholine-4-carbonyl)-7-methoxy-1,4-dihydrochromeno[4,3-c]pyrazol-8-yl)phenyl)amino)-1,18-dioxo-5,8,11,14-tetraoxa-2,17-diazanonadecan-19-yl)-1,4,7,10-tetraazacyclododecane-1,4,7-triyl)triacetic acid]	10 to 100
COc1cc2c(cc1-c1cccc(NC(=O)C[C@@H](N)C(=O)NC3CCN(C(=O)CN4CCN(CC(=O)O)CCN(CC(=O)O)CCN(CC(=O)O)CC4)CC3)c1)-c1c(c(C(=O)N3CCOCC3(C)C)nn1-c1cc(Cl)cc(Cl)c1)CO2 [Compound 12, (R)-2,2′,2″-(10-(2-(4-(2-amino-4-((3-(1-(3,5-dichlorophenyl)-3-(3,3-dimethylmorpholine-4-carbonyl)-7-methoxy-1,4-dihydrochromeno|4,3-clpyrazol-8-yl)phenyl)amino)-4-oxobutanamido)piperidin-1-yl)-2-oxoethyl)-1,4,7,10-tetraazacyclododecane-1,4,7-triyl)triacetic acid]	10 to 100
